Experimental data reported in US20210046106A1, “METHODS OF TREATING CANCER WITH ANDROGEN DEPRIVATION THERAPY IN COMBINATION WITH AN INHIBITOR OF THE SP1 TRANSCRIPTION FACTOR” (The Board of Trustees of the Leland Stanford Junior …, priority 2019, published 2021).

Key:
[1] = Phase 1 trial: Brief Pain Inventory; format: in vivo, human; details: 10 point scale
Description: They also completed another pain inventory.
The pain inventory captured four categories of pain as follows: worst pain in last 24 hours, least pain in last 24 ours, average pain and pain right now. Pain was scored using a 10 point scale, on which 0 was no pain and 10 was severe pain. […] A change of at least one point was felt to be clinically meaningful.

[2] = system: tumor in irradiated field; assay: Phase 1 trial: tumor response in irradiated field (imaging); format: in vivo, human; parameters: key: CR resolution of uptake; PR decrease in extent of involvement (# and size of lesion ≥ 50% observed); SD same extent of involvement (# and size of lesions)
From the text: All but one patient received palliative radiation therapy to symptomatic bone metastases. Quantitation of response in bone is difficult and imprecise. Furthermore, patients were imaged as per standard of care, using a variety of imaging modalities, including bone scan, which is not applicable to RECIST scoring. […] There was no apparent dose response relationship.

[3] = SECAR study, cited from earlier work
GI epithelium = assay: Preclinical: radiosensitization of normal GI epithelium; details: preclinical studies
prostate cancer tumors = assay: Preclinical: growth of well-established prostate cancer tumors in mice; details: i.p. and p.o.
PSA = assay: Phase 1 trial: PSA in the subset of patients with prostate cancer; format: in vivo, human
From the text: There was no evidence of a selenite dose response relationship, but patient numbers were too small and the patients too heterogeneous to draw a definitive conclusion about the presence or absence of a dose response relationship. Of note, patients were maintained on whatever ADT they were on before study entry, as discontinuation of ADT could have been even more of a confounding variable.

[4] = Phase 1 trial: population PK model (NONMEM, 1-compartment, oral absorption) and simulations; details: human, in vivo
[5] = 5.5 mg cohort (N=3), First follow-up
[6] = 11 mg cohort (N=3), First follow-up
[7] = 16.5 mg cohort (N=3), End of RT
[8] = 16.5 mg cohort (N=3), First follow-up
[9] = 33 mg cohort (N=5), First follow-up
[10] = 49.5 mg cohort (N=1), End of RT
[11] = 49.5 mg cohort (N=1), First follow-up

O=[Se](O)O [sodium selenite, Sodium selenite pentahydrate]
Average Pain, average change from baseline, Mean ± SD ([1]; 5.5 mg cohort (N=3), End of RT): −2.5 ± 0.7 | Least Pain Last 24 Hrs, average change from baseline, Mean ± SD ([1]; 5.5 mg cohort (N=3), End of RT): −1.5 ± 2.1 | Pain Right Now, average change from baseline, Mean ± SD ([1]; 5.5 mg cohort (N=3), End of RT): −2 ± 0 | Worst Pain Last 24 Hrs, average change from baseline, Mean ± SD ([1]; 5.5 mg cohort (N=3), End of RT): −4 ± 1.4 | Average Pain, average change from baseline, Mean ± SD [1, 5]: −1.5 ± 0.7 | Least Pain Last 24 Hrs, average change from baseline, Mean ± SD [1, 5]: −1.5 ± 1.4 | Pain Right Now, average change from baseline, Mean ± SD [1, 5]: −2 ± 0 | Worst Pain Last 24 Hrs, average change from baseline, Mean ± SD [1, 5]: −2.5 ± 0.7 | Average Pain, average change from baseline, Mean ± SD ([1]; 11 mg cohort (N=3), End of RT): −2.3 ± 4.0 | Least Pain Last 24 Hrs, average change from baseline, Mean ± SD ([1]; 11 mg cohort (N=3), End of RT): −2.7 ± 3.8 | Pain Right Now, average change from baseline, Mean ± SD ([1]; 11 mg cohort (N=3), End of RT): 1.7 ± 2.9 | Worst Pain Last 24 Hrs, average change from baseline, Mean ± SD ([1]; 11 mg cohort (N=3), End of RT): −1.7 ± 1.5 | Average Pain, average change from baseline, Mean ± SD [1, 6]: −0.7 ± 4.6 | Least Pain Last 24 Hrs, average change from baseline, Mean ± SD [1, 6]: −1.3 ± 4.9 | Pain Right Now, average change from baseline, Mean ± SD [1, 6]: 1.7 ± 1.2 | Worst Pain Last 24 Hrs, average change from baseline, Mean ± SD [1, 6]: −0.7 ± 5.0 | Average Pain, average change from baseline, Mean ± SD [1, 7]: −1.5 ± 3.5 | Least Pain Last 24 Hrs, average change from baseline, Mean ± SD [1, 7]: −1 ± 2.8 | Pain Right Now, average change from baseline, Mean ± SD [1, 7]: −0.5 ± 2.1 | Worst Pain Last 24 Hrs, average change from baseline, Mean ± SD [1, 7]: −1 ± 1.4 | Average Pain, average change from baseline, Mean ± SD [1, 8]: −2 ± 2 | Least Pain Last 24 Hrs, average change from baseline, Mean ± SD [1, 8]: −2.3 ± 2.1 | Pain Right Now, average change from baseline, Mean ± SD [1, 8]: −2.7 ± 3.8 | Worst Pain Last 24 Hrs, average change from baseline, Mean ± SD [1, 8]: −0.7 ± 0.6 | Average Pain, average change from baseline, Mean ± SD ([1]; 33 mg cohort (N=5), End of RT): −1.2 ± 1.3 | Least Pain Last 24 Hrs, average change from baseline, Mean ± SD ([1]; 33 mg cohort (N=5), End of RT): −0.2 ± 0.5 | Pain Right Now, average change from baseline, Mean ± SD ([1]; 33 mg cohort (N=5), End of RT): −0.6 ± 1.1 | Worst Pain Last 24 Hrs, average change from baseline, Mean ± SD ([1]; 33 mg cohort (N=5), End of RT): −1 ± 2 | Average Pain, average change from baseline, Mean ± SD [1, 9]: −1 ± 1 | Least Pain Last 24 Hrs, average change from baseline, Mean ± SD [1, 9]: 0 ± 1 | Pain Right Now, average change from baseline, Mean ± SD [1, 9]: −0.8 ± 1.3 | Worst Pain Last 24 Hrs, average change from baseline, Mean ± SD [1, 9]: −2 ± 2 | Average Pain, average change from baseline, Mean ± SD [1, 10]: −4.5 ± 0 | Least Pain Last 24 Hrs, average change from baseline, Mean ± SD [1, 10]: −5 ± 0 | Pain Right Now, average change from baseline, Mean ± SD [1, 10]: −4 ± 0 | Worst Pain Last 24 Hrs, average change from baseline, Mean ± SD [1, 10]: −6 ± 0 | Average Pain, average change from baseline, Mean ± SD [1, 11]: −8.5 ± 0 | Least Pain Last 24 Hrs, average change from baseline, Mean ± SD [1, 11]: −9 ± 0 | Pain Right Now, average change from baseline, Mean ± SD [1, 11]: −8 ± 0 | Worst Pain Last 24 Hrs, average change from baseline, Mean ± SD [1, 11]: −10 ± 0 | Tumor Response in Irradiated Field ([2]; patient 2 (prostate, 5.5 mg), Field 1, bone, BS 2 mo.): CR | Tumor Response in Irradiated Field ([2]; patient 2 (prostate, 5.5 mg), Field 2, bone, BS 2 mo.): PR (PR decrease in extent of involvement (# and size of lesion ≥ 50% observed)) | Tumor Response in Irradiated Field ([2]; patient 3 (prostate, 5.5 mg), bone, BS 1 mo.): SD | Tumor Response in Irradiated Field ([2]; patient 4 (prostate, 11 mg), bone, BS 1 mo.): CR | Tumor Response in Irradiated Field ([2]; patient 5 (prostate, 11 mg), bone, BS 3 mo., ↓ intensity of uptake): SD ( ↓ Intensity of uptake) | Tumor Response in Irradiated Field ([2]; patient 6 (prostate, 11 mg), bone, BS 5 mo., change from diffuse to patch involvement): PR (Change from diffuse to patch involvement (PR decrease in extent of involvement (# and size of lesion ≥ 50% observed)) | Tumor Response in Irradiated Field ([2]; patient 7 (prostate, 16.5 mg), bone, BS 1 mo., ↓ intensity of uptake): SD (↓ intensity of uptake) | Tumor Response in Irradiated Field ([2]; patient 8 (prostate, 16.5 mg), bone, MRI 2 mo.): SD | Tumor Response in Irradiated Field ([2]; patient 9 (prostate, 16.5 mg), bone, CT and MRI 3 mo.): SD | Tumor Response in Irradiated Field ([2]; patient 10 (prostate, 33 mg), Field 1, bone, CT 4 mo.): PD (PD ≥ 20% ↑ sum of diameters) | Tumor Response in Irradiated Field ([2]; patient 10 (prostate, 33 mg), Field 2, bone, CT 4 mo.): SD | Tumor Response in Irradiated Field ([2]; patient 11 (multiple myeloma, 33 mg), bone, PET-CT 6 mo., almost complete metabolic resolution): PR (almost complete metabolic resolution) (PR ≥ 30% ↓ sum of diameters) | Tumor Response in Irradiated Field ([2]; patient 12 (MPNST, 33 mg), lymph node, CT 1 mo.): SD | Tumor Response in Irradiated Field ([2]; patient 13 (NSCLC, 33 mg), bone, CT, MRI and PET-CT 1 mo.): PD (PD ≥ 20% ↑ sum of diameters) | Tumor Response in Irradiated Field ([2]; patient 15 (NSCLC, 49.5 mg), bone, BS 2 mo.): SD | MTD ([3]; i.v. daily for 5 consecutive days for 2 or 4 weeks, 34 patients): 10.2 mg/m^2 | most common side effects ([3]; i.v.): fatigue, nausea and cramps in fingers and legs | sensitization of GI epithelium to radiation (GI epithelium): did not sensitize GI epithelium to radiation | toxicity at the growth-inhibiting doses (prostate cancer tumors): no detectable toxicity | PSA % Change (PSA; patient 2, 5.5 mg cohort, FU visit 2 M vs Day 1): −77.9% | PSA Value FU (PSA; patient 2, 5.5 mg cohort, FU visit 2 M, Day 1 PSA 39.83): 8.79 ng/mL | PSA % Change (PSA; patient 3, 5.5 mg cohort, FU visit 2.25 M vs Day 1): 6.2% | PSA Value FU (PSA; patient 3, 5.5 mg cohort, FU visit 2.25 M, Day 1 PSA 225): 239 ng/mL | PSA % Change (PSA; patient 4, 11 mg cohort, FU visit 3.25 M vs Day 1): −72.9% | PSA Value FU (PSA; patient 4, 11 mg cohort, FU visit 3.25 M, Day 1 PSA 131.83): 35.77 ng/mL | PSA % Change (PSA; patient 5, 11 mg cohort, FU visit 4 M vs Day 1): −52.6% | PSA Value FU (PSA; patient 5, 11 mg cohort, FU visit 4 M, Day 1 PSA 40.61): 19.25 ng/mL | PSA % Change (PSA; patient 6, 11 mg cohort, FU visit 4 M vs Day 1): −67.3% | PSA Value FU (PSA; patient 6, 11 mg cohort, FU visit 4 M, Day 1 PSA 0.98): 0.32 ng/mL | PSA % Change (PSA; patient 7, 16.5 mg cohort, FU visit 2.25 M vs Day 1): 1155.7% | PSA Value FU (PSA; patient 7, 16.5 mg cohort, FU visit 2.25 M, Day 1 PSA 1.74): 21.85 ng/mL | PSA % Change (PSA; patient 8, 16.5 mg cohort, FU visit 2.75 M vs Day 1): −59.4% | PSA Value FU (PSA; patient 8, 16.5 mg cohort, FU visit 2.75 M, Day 1 PSA 3.3): 1.34 ng/mL | PSA % Change (PSA; patient 9, 16.5 mg cohort, FU visit 3.25 M vs Day 1): −11% | PSA Value FU (PSA; patient 9, 16.5 mg cohort, FU visit 3.25 M, Day 1 PSA 1): 0.89 ng/mL | PSA % Change (PSA; patient 10, 33 mg cohort, FU visit 3 M vs Day 1): −67.1% | PSA Value FU (PSA; patient 10, 33 mg cohort, FU visit 3 M, Day 1 PSA 196): 64.46 ng/mL | decrease in PSA, range (PSA; the seven of nine prostate cancer patients with a decrease, first follow up 2-4 months after RT): 11-78% | Tmax ([4]; both): 4.05 h | AUC ([4]; both, 1100 mcg): 6160 ng·h/mL | Cmax ([4]; both, 1100 mcg): 301 ng/mL | AUC ([4]; both, 5500 mcg): 3630 ng·h/mL | Cmax ([4]; both, 5500 mcg): 215 ng/mL | Tmax ([4]; both, 5500 mcg): 3.65 h | AUC ([4]; both, 16500 mcg): 8280 ng·h/mL | Cmax ([4]; both, 16500 mcg): 366 ng/mL | Tmax ([4]; both, 16500 mcg): 4.15 h | AUC ([4]; both, 33000 mcg): 13300 ng·h/mL | Cmax ([4]; both, 33000 mcg): 496 ng/mL | Tmax ([4]; both, 33000 mcg): 4.35 h | AUC ([4]; both, 49500 mcg): 17000 ng·h/mL | Cmax ([4]; both, 49500 mcg): 593 ng/mL | Tmax ([4]; both, 49500 mcg): 4.4 h | half-life ([4]; half-life, simple formulation used in phase 1 trial): ~19 h | AUC ([4]; po, 5.5 mg): 3700 ng·h/mL | Cmax ([4]; po, 5.5 mg): 214 ng/mL | AUC ([4]; po, 11 mg): 6250 ng·h/mL | Cmax ([4]; po, 11 mg): 301 ng/mL | AUC ([4]; po, 16.5 mg): 8360 ng·h/mL | Cmax ([4]; po, 16.5 mg): 366 ng/mL | AUC ([4]; po, 33 mg): 13300 ng·h/mL | Cmax ([4]; po, 33 mg): 497 ng/mL | AUC ([4]; po, 49.5 mg): 16900 ng·h/mL | Cmax ([4]; po, 49.5 mg): 595 ng/mL | half-life ([4]; po, half-life calculated from population PK model, patients with metastatic cancer): ~18.5 h
